This is an account of results in patent US20220017484A1, “INHIBITOR OF BRUTON TYROSINE KINASE” (BEIJING RECIPROCAPHARMACEUTICALS CO., LTD., priority 2018, published 2022).

Test [1] addresses T1, Btk (Homo sapiens, UniProt Q06187). Description: Analysis of in vitro inhibitory activity of Btk (cell-free TR-FRET kinase assay). The settings on record: for IC50: cell-free TR-FRET, ATP at Km, 1 h, read-out: Efficacy (Btk IC50); for inhibitory effects against Btk (in words): summary of Table 1 efficacy data. The format is biochemical. On the procedure: In a cell-free kinase assay, the method described below or a similar method was used to determine the half inhibitory concentration (IC50) of the compound of the present invention on Btk.
Btk kinase activity was determined using a time-resolved fluorescence resonance energy transfer (TR-FRET) methodology. Measurements were performed in a reaction volume of 50 μL using 96-well assay plates. […] The reaction was quenched by the addition of 1.2 equivalents of EDTA (relative to divalent cation) in […] of 1× Lance buffer (Perkin-Elmer). Streptavidin-APC (Perkin-Elmer) and Eu-labeled p-Tyr100 antibody (Perkin-Elmer) in 1× Lance buffer were added in a volume of 25 μL to give final concentrations of 100 nM and 2.5 nM, respectively. The mixture was allowed to incubate for 1 h. The TR-FRET signal was measured on a multimode plate reader at an excitation wavelength (λEx) of 330 nm and detection wavelengths (λEm) of 615 and 665 nm. The activity was determined by the ratio of fluorescence at 665 nm to that at 615 nm. For each compound, the enzyme activity was measured in the presence of different concentrations of the compound. Negative control reactions were performed in the absence of inhibitor in replicates of six, and two no-enzyme controls were used to determine baseline fluorescence levels. IC50 was obtained by fitting using the program Batch Ki (Kuzmic, et al. (2000), Anal. Biochem. 286:45-50).
The Example compounds 1-50 of the present invention were synthesized according to the above Synthetic Schemes I to VII. In the analysis of in vitro inhibitory activity of Btk, the IC50 values of the Example compounds 1-50 of the present invention were determined. The IC50 values are given according to the interval of the IC50 value, where “+++” means IC50<100 nM; “++” means 100 nM≤IC50<1000 nM; and “+” means 1000 nM≤IC50<10000 nM.
On the technique in general: TR-FRET usually uses a lanthanide donor and a delayed reading to cut background.

The subject of the next test is OCI-LY7 cells. Description: Cell viability assay (CellTiter-Glo, 72 h). The format is cell-based. The settings on record: Homo sapiens, read-out: Results from inhibition of OCI-LY7 cells (IC50). On the procedure: An in vitro cell viability assay was conducted using the compounds of Examples 1-50 following the steps below:
1. After OCI-LY7 cells were recovered, they were cultured at 37° C., 5% CO2, and 95% humidity.
2. For the compounds of Examples 1-50, 8 compound solutions at different concentrations were prepared, respectively. 50 μL of the compound solution at each concentration was added to a 96-well black plate.
3. The cell concentration was adjusted to about 30,000 cells/mL. 100 μL of cell suspension was added to the 96-well plate, and mixed well. The final cell density was about 3,000 cells/well.
4. The 96-well plate was placed at 37° C., 5% CO2, and 95% humidity for 72 h.
5. The cell survival rate was measured by the method of CellTiter-Glo® Luminescent Cell Viability Assay (Promega, Cat #G7572). The fluorescence data were read on a microplate reader (EnVision™, a multi-function microplate detector, PerkinElmer).
6. The obtained fluorescence data were analyzed using GraphPad Prism software. The cell survival rate was calculated for each example compound at each concentration, and the IC50 interval of each example compound was obtained.
Background: In ATP-based viability assays light output follows the ATP content of the culture.

The target of test [2] is T1, Btk. Description: Covalent inhibition assay on BTK (fluorescent probe labeling, SDS-PAGE scanning). The format is binding. Also noted: purchased carna 08-180. The settings on record: for binding mode to recombinant BTK: 0.5 μM and 5 μM, 1 h incubation; for inhibition of the labeling of BTK by the fluorescent probe: 1 h incubation with BTK, then probe 1 h, 1% DMSO control. On the procedure:
FIG. 1 is a graph showing the scanning results from SDS-PAGE electrophoresis after the compounds of Examples 23 and 26 at two concentrations (0.5 μM and 5 μM) were incubated with BTK for 1 h, and then a probe prepared according to Sci. Rep. 2015, 5, 16136 was added and incubated for 1 h.
This assay was carried out using the compounds of Examples 23 and 26. The reagents used are as follows:
BTK kinase: brand name: carna, product number: 08-180, concentration: […];
BTK enzyme activity buffer: 1× kinase buffer+1 mM DTT+5 mM MgCl2+50 nM SEB;
BTK probe (100 μM): prepared according to Sci. Rep. 2015, 5, 16136 (Pan Zhengying, et al.);
The compounds of Examples 23 and 26: prepared as described above, and prepared at two concentrations (0.5 μM/5 μM) respectively.
The steps of the assay are as follows:
1. The sample order was 1% DMSO, 0.5 μM compound of Example 23, 5 μM compound of Example 23, 0.5 μM compound of Example 26, and 5 μM compound of Example 26. The compounds, BTK, probe and 2× loading buffer were added to 5 200 μl EP tubes using a pipette.
2. The final concentrations of the compounds of Examples 23 and 26 were 0.5 μM and 5 μM, and the control group was 1% DMSO. The compounds were first prepared with DMSO to 100× the above final concentrations, and diluted ×40 with BTK enzyme activity Buffer. For the reaction, 4 μl/well of the compound was added to the 10 μl system using a pipette to reach its final concentration. For 1% DMSO, the stock solution was diluted ×40 with BTK enzyme activity Buffer.
3. The BTK (200 ng/μl) was diluted to 10 ng/μl, and the probe (100 μM) was diluted to 2.5 μM. They were placed on ice for later use, and the probe was protected from light.
4. To each tube was added 4 μl of BTK, followed by 4 μl of the Example compound. After 1 h incubation, the probe was added, and then incubated for 1 h in the dark.
5. 2× loading buffer was prepared. After the probe was incubated, 10 μl of the 2× loading buffer was added to each well, mixed well, and heated at 100° C. for 10 min to prepare the sample.
6. 10 μl (containing 20 ng of BTK, and 0.5 μM probe) was loaded. Scanning was performed after SDS-PAGE. The order of samples was the order of spotting.
If it is a compound that reversibly binds to BTK, the probe would bind to the released BTK during 1 h incubation with a mixture of the compound and BTK, leading to a fluorescent band.

Molecules are shown by their SMILES.

T1 sequence (Q06187 whole entry): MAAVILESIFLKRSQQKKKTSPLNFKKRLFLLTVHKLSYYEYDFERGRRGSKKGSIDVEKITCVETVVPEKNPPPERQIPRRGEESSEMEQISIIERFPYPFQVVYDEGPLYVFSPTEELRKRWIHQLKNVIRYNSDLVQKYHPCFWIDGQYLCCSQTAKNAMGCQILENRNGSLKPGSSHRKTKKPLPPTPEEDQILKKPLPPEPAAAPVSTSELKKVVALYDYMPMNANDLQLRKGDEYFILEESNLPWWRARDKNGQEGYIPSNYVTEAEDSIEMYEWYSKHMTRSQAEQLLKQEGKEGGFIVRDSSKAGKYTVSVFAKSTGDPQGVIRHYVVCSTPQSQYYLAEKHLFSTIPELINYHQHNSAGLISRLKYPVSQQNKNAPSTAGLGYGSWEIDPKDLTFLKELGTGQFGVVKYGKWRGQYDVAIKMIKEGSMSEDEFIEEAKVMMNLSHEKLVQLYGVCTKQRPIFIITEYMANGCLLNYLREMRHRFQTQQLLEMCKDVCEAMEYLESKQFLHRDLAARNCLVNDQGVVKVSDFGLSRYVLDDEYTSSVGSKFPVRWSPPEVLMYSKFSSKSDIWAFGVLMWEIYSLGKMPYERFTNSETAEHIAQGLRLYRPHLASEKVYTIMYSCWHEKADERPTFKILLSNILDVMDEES

One may read the IC50 as the concentration needed to halve the response being measured. Turning to `C=CC(=O)N(CC)c1cccc(Nc2ncc3cc(-c4c(C)cc[nH]c4=O)ccc3n2)c1` [Example 26], the IC50 on Btk [1] is less than 100 nM; with OCI-LY7 cells, less than 500 nM. Also, the “inhibitory effects against Btk (in words)” value (“inhibitory effects” for short) at Btk [1] is on record as “particularly excellent inhibitory effects”. Besides, on Btk [2], the “binding mode to recombinant BTK” value is on record as “irreversibly covalently binds”. The “inhibition of the labeling of BTK by the fluorescent probe” value against Btk [2] (compound 0.5 μM) and at Btk [2] (compound 5 μM) was “completely inhibit” throughout.

For `C=CC(=O)N(C)c1cccc(Nc2ncc3cc(-c4c(C)cc[nH]c4=O)ccc3n2)c1` [Example 23], the IC50 on Btk [1] is less than 100 nM; with OCI-LY7 cells it was less than 500 nM. Moreover, the “inhibitory effects” value against Btk [1] is listed as “particularly excellent inhibitory effects”. Moreover, the “binding mode to recombinant BTK” value on Btk [2] is “irreversibly covalently binds”. Further, the “inhibition of the labeling of BTK by the fluorescent probe” value against Btk [2] (compound 0.5 μM) and on Btk [2] (compound 5 μM) was “completely inhibit” in each case.

For `C=CC(=O)N[C@H](C(=O)Nc1cccc(Nc2ncc3cc(-c4c(C)cc[nH]c4=O)ccc3n2)c1)C(C)C` [Example 19], the IC50 on Btk [1] is less than 100 nM; with OCI-LY7 cells, less than 500 nM. At Btk [1], the “inhibitory effects” value is “particularly excellent inhibitory effects”.

As to `[2H]C([2H])([2H])N(C(=O)C=C)c1cccc(Nc2ncc3cc(-c4c(C)cc[nH]c4=O)ccc3n2)c1` [Example 44], on Btk [1], the IC50 is less than 100 nM and the “inhibitory effects” value is “particularly excellent inhibitory effects”. Besides, in the test on OCI-LY7 cells, the IC50 is less than 500 nM.

Consider `C=CC(=O)Nc1cccc(Nc2ncc3cc(-c4c(C)cc[nH]c4=O)ccc3n2)c1` [Example 2], for which, on Btk [1], the IC50 was less than 100 nM and the “inhibitory effects” value was “particularly excellent inhibitory effects”. Moreover, in the test on OCI-LY7 cells, the IC50 is less than 500 nM.

For the compound `C=CC(=O)N(CC)c1cc(Nc2ncc3cc(-c4c(C)cc[nH]c4=O)ccc3n2)ccc1F` [Example 39], the IC50 was less than 100 nM at Btk [1] and 500 to 2500 nM in the test with OCI-LY7 cells.

`C=CC(=O)N(CC)c1cccc(Nc2ncc3cc(-c4c(C)ccn(-c5ncco5)c4=O)ccc3n2)c1` [Example 32]: the figures for the IC50 at Btk [1] and in the test on OCI-LY7 cells were 100 to 1000 nM and 500 to 2500 nM, respectively.

As to `CCNc1cccc(Nc2ncc3cc(-c4c(C)cc[nH]c4=O)ccc3n2)c1` [Example 25], the IC50 on Btk [1] was less than 100 nM; in the test with OCI-LY7 cells, less than 500 nM.

With `Cc1cc[nH]c(=O)c1-c1ccc2nc(Nc3cccc(NC(=O)CN)c3)ncc2c1` [Example 9], the IC50 was less than 100 nM at Btk [1] and 500 to 2500 nM with OCI-LY7 cells.

For `CC#CC(=O)N(CC)c1cccc(Nc2ncc3cc(-c4c(C)cc[nH]c4=O)ccc3n2)c1` [Example 33], at Btk [1], the IC50 is less than 100 nM and the “inhibitory effects” value is “particularly excellent inhibitory effects”. Further, in the test with OCI-LY7 cells, the IC50 was less than 500 nM.

On to `Cc1cc[nH]c(=O)c1-c1ccc2nc(Nc3ccc4c(c3)NCCO4)ncc2c1` [Example 41], for which the IC50 at Btk [1] is less than 100 nM; in the test on OCI-LY7 cells it was less than 500 nM.

With `Cc1cc[nH]c(=O)c1-c1ccc2nc(Nc3cccc(NC(=O)[C@@H](N)C(C)C)c3)ncc2c1` [Example 18], the IC50 at Btk [1] was less than 100 nM; in the test with OCI-LY7 cells, less than 500 nM.
